# Measurements: patent US8894993B2, “Mitochondria-targeted antioxidants” (Natreon Inc., priority 2006, dated 2014)
# Key:
# [1] = DBP products in mice liver mitochondria before and after DBPs treatment, HPTLC; format: in vivo, Swiss Albino mice; settings: one hour after i.p. 4:1 mixture of 3,8-(OH)2-DBP and 3-OH-DBP 20 mg/Kg
# Experimental: Mitochondria were isolated from heart and liver of chicken, goat and mice following a published procedure (Liu Y, Deng F, Zhao R and Qu S, Chemosphere, 40(8):851-854, 2000). […] The tissue was cut into small pieces, homogenized and centrifuged at 900 g for one minute. The supernatant was again centrifuged twice, for 20 minutes each time at 900 g. The sediment at each step was discarded. The clear supernatant was centrifuged twice at 12,000 g, 20 minutes each time, to form pellets of a mitochondria-enriched fraction. The fraction was divided into two parts. One part was resuspended in a measured volume of distilled water and sonicated (10 min×2). […] The two extracts were subjected to comprehensive HPTLC and HPLC analyses for detection and quantitation of DBPs and their equivalents. […] One hour after administration the animals were sacrificed and mitochondria from liver were isolated and analyzed as described for Example 6. […] Mobile Phase—Chloroform:Methanol 90:10 Sample application—CAMAG LINOMAT 5 (Automated applicator) Detection—240 nm (CAMAG TLC SCANNER 3) 3-OH-DBP and 3,8-(OH)2-DBP (and their conjugates) were detected in mitochondria of control mice by HPTLC. Administration of DBPs to the animals increased the amount of DBPs and its products in mitochondria as detected by using authentic markers of the two DBPs (Table 2).
# [2] = test system: Blood levels of ATP and energy related indices; test: Blood ATP and energy related indices in mice after forced swimming stress; format: in vivo, Swiss albino mice
# Experimental: Swiss albino mice (20±2 g) were fed orally with—(a) 3,8-(OH)2-DBP and (b) 3-OH-DBP (each 25 mg/Kg b.w.), per day, for 7 days. In case of the controls, only vehicle (0.8% carboxymethyl cellulose in water) was administered for seven days of the experiment. The animals were subjected to ‘forced swimming’ for 30 minutes on the 7th day of the experiment [Pliakas, A. M., Carlson, R. R., Neve, R. L., Konradi, C., Nestler, E. J. and Carlezon, W. A. 2001. J. Neurosci., 21(18), 7397-7403]. Immediately after the swimming, blood was collected from all the animals for analysis of ATP and related nucleotides by HPLC [Smolenska, Z., Kaznowska, Z., Zarowny, D., Simmonds, H. A. and Smolenski, R. T. 1999. Rheumatology, 38, 997-1002; Komarova, S. V., Mosharov, E. V., Vitvitsky, V. M. and Ataullakhanov, F. I. 1999. Blood Cell Mol. Dis., 25(13), 170-179; Marquardt, D. L., Gruber, H. E. and Wasserman, S. I. 1984. Proc. Natl. Acad. Sci., 81, 6192-6196]. AEC (adenylate energy charge) was calculated according to the method of Atkinson and Walton [Atkinson D E & Walton G M, Adenosine triphosphate conservation in metabolic regulation, J Biol Chem, 242 (1967) 3239] and TAN (total adenine nucleotides) was calculated according to an established method [Spencer M K & Katz A, Role of glycogen in control of glycolysis and IMP formation in human muscle during exercise, Am J Physiol, 260 (1991) E859].
# [3] = test system: Superoxide dismutase (SOD) activity in liver; test: Superoxide dismutase activity in liver of mice after restraint stress; format: in vivo, Swiss albino mice; settings: 25 mg/Kg p.o. 7 days, control 0.6
# Experimental: (§1) Swiss albino mice (20±2 g) were fed orally with—(a) 3-OH-DBP and (b) 3,8-(OH)2-DBP (each 25 mg/Kg b.w. per day, for 7 days). In case of the controls, only vehicle (0.8% carboxymethyl cellulose in water) was administered for seven days of the experiment. All the animals of all the groups were subjected to restraint stress (for 60 minutes) on the seventh day of the experiment, 2 hours after drug administration, according to a published method [Figueiredo, H. F., Bodie, B. L., Tauchi, M., Dolgas, C. M. and Herman, J. P. 2003. Endocrinology, 144, 5249-5258]. The model was selected in the present experiment, because restraint stress is a widely used model of acute oxidative stress. Immediately after being exposed to stress, the animals were sacrificed, blood was collected for analysis by HPLC of ATP and related nucleotides [Smolenska, Z., Kaznowska, Z., Zarowny, D., Simmonds, H. A. and Smolenski, R. T. 1999. […] AEC (adenylate energy charge) was calculated according to the method of Atkinson and Walton [Atkinson D E & Walton G M, Adenosine triphosphate conservation in metabolic regulation, J Biol Chem, 242 (1967) 3239] and TAN (total adenine nucleotides) was calculated according to an established method [Spencer M K & Katz A, Role of glycogen in control of glycolysis and IMP formation in human muscle during exercise, Am J Physiol, 260 (1991) E859]. […]
# [4] = test system: Catalase activity in liver; test: Catalase activity in liver of mice after restraint stress; format: in vivo, Swiss albino mice; settings: 25 mg/Kg p.o. 7 days, control 3.9
# Experimental: as §1
smiles,measurement,setting,value
"O=c1oc2cc(O)ccc2c2ccc(O)cc12 [3,8-(OH)2-DBP, 3,8-dihydroxydibenzo-α-pyrone]",Amount in mitochondria after DBP treatment,[1],2.3 nmol/gm wet wt
same,"content of ATP, AEC values and ATP/ADP ratio (in blood), in words",[2]; albino mice engaged in forced swimming,significant improvement only in some parameters
same,ATP,"[2]; blood, forced swimming, 25 mg/Kg p.o. 7 days, mean ± SEM of 6, control 0.60 ± 0.01",0.68 ± 0.03 µM
same,TAN,"[2]; blood, forced swimming, 25 mg/Kg p.o. 7 days, mean ± SEM of 6, control 0.79 ± 0.01",0.86 ± 0.03 µM
same,AEC,"[2]; blood, forced swimming, 25 mg/Kg p.o. 7 days, mean ± SEM of 6, control 0.86 ± 0.003",0.88 ± 0.003
same,ATP/ADP ratio,"[2]; blood, forced swimming, 25 mg/Kg p.o. 7 days, mean ± SEM of 6, control 3.84 ± 0.09",4.30 ± 0.12
same,SOD activity in liver,[3],0.98 U/gm tissue
same,Catalase activity in liver,[4],3.4 U/mg tissue
